Measurements as given in a melting point compilation (Tetko et al.; mined from patent text by program, amines drawn as free bases though some values may be those of a salt).

First: O=C(C1CCCN1C(=O)CCCN1C(=O)c2ccccc2C1=O)N1CCCC1 (configuration not stated)
Second: O=C(Cl)[C@@H]1CCCN1S(=O)(=O)c1ccc2ccccc2c1
The melting point of the first is higher: 148 to 149 °C for the first, 107 to 109 °C for the second.

First: Cc1cc2c(c(-c3cccc(Cl)c3)c1)OC(CN)C2 (configuration not stated)
Second: CCOC(=O)c1cccc(-c2nc(-c3cc(C)oc3C)cs2)c1
The melting point of the first is lower: 90 to 93 °C for the first, 100 to 101 °C for the second.

First: Cn1c(=O)c(C#N)c(N2CCN(C(=O)c3ccco3)CC2)c2cc(Cl)ccc21
Second: CN1CCN(c2cccc3ccc(NC(=O)c4ccc(O)cc4)cc23)CC1
The melting point of the first is higher: 228 °C for the first, 156 to 160 °C for the second.

First: CCC1c2ccc(F)n2-c2ccc(F)cc2N1S(=O)(=O)c1ccc(O)c(C)c1 (configuration not stated)
Second: COC(=O)CCc1cc2cc(F)c(Cl)cc2n1S(=O)(=O)c1ccccc1
The melting point of the first is higher: 149 to 151 °C for the first, 127 to 130 °C for the second.

First: O=C(O)c1cc2c(s1)C1CCC2C1 (configuration not stated)
Second: NC(=O)c1sc2nc(N3CCC(NCC(O)c4ccc5ccccc5n4)CC3)cc(C(F)(F)F)c2c1N (configuration not stated)
The melting point of the first is lower: 183 to 184 °C for the first, 198 to 201 °C for the second.

First: Cn1c(CC(=O)O)ccc1C(=O)c1ccc(C(F)(F)F)cc1
Second: CCCCc1nc(C(F)(F)F)c(CO)n1Cc1ccc(-c2ccccc2C(=O)O)cc1
The melting point of the first is lower: 152 to 154 °C for the first, 198 to 200 °C for the second.

Compared with `CC(=S)NCC1CN(c2ccc(N3CCC4(CC3)NC(=O)NC4=O)c(F)c2)C(=O)O1` (configuration not stated), `CCNC(=O)N1CCC(c2[nH]nc3c2C(=O)c2c(NC(=O)NN4CCOCC4)cccc2-3)CC1` is lower in melting point: 218 °C for the first, 215 to 216 °C for the second.

First: Cc1cncc(CNC(=O)c2sc(N3CCN(CCCC(F)(F)F)C3=O)nc2C)n1
Second: CCCCc1nc2cccc(C)c2c(=O)n1Cc1ccc(C2(C(=O)O)CC=CC2)s1
The melting point of the first is lower: 123 °C for the first, 150 to 151 °C for the second.

First: CCCc1nc2c(N)nc3cc(OCCCNC(=O)NS(=O)(=O)c4ccc(F)cc4)ccc3c2n1CC(C)C
Second: Cc1ccc(S(=O)(=O)Nc2nc(-c3cccc([N+](=O)[O-])c3)cs2)cc1
The melting point of the first is higher: 194 to 198 °C for the first, 187 to 189 °C for the second.

Compared with `C/C(=N\OCCBr)[C@H]1CC[C@H]2[C@@H]3CCC4=CC(=O)CC[C@]4(C)[C@H]3CC[C@]12C`, `CCOC(=O)c1ccc(OCC2CCN(c3ccc(OC)nn3)CC2)cc1` is higher in melting point: 96 to 98 °C for the first, 147 °C for the second.

Compared with `CNC(=O)Oc1cc(C)c(NC(=O)COC)c(C)c1`, `CCOC(=O)Cc1n[nH]c(=O)c2c(C)cccc12` is higher in melting point: 180 to 182 °C for the first, 197 to 199 °C for the second.

First: OC(CCl)(Cc1ccc(Cl)cc1)c1ccc2c(c1)Cc1cc(Cl)ccc1-2 (configuration not stated)
Second: O=C(Oc1c(Cl)cc(Cl)c(Cl)c1Cl)c1ccc(CCl)cc1
The melting point of the first is lower: 108 °C for the first, 143 to 149 °C for the second.

First: OCc1cccc2c(-c3ccc(Br)cc3)nccc12
Second: CCOC(=O)Cc1nc(-c2ccc(OC)cc2)oc1-c1ccco1
The melting point of the first is higher: 226 °C for the first, 64 to 66 °C for the second.

First: O=C(CCCN1CCC2(CC1)OC(c1ccccc1)c1ccccc12)c1ccc(F)cc1 (configuration not stated)
Second: CCC(NS(=O)(=O)c1ccc(F)cc1)P(=O)(Oc1ccccc1)Oc1ccccc1 (configuration not stated)
The melting point of the first is lower: 137 to 138 °C for the first, 148 to 151 °C for the second.

First: Cn1c(CN2C(=O)C3(COc4cc5c(cc43)CCO5)c3ccccc32)nc2ccccc21 (configuration not stated)
Second: O=C(Nc1nc2ccc(Cl)cc2c2c1ncn2-c1ccccc1Cl)c1ccccc1
The melting point of the first is lower: 244 to 246 °C for the first, 255 to 258 °C for the second.

First: O=c1[nH]c2ccncc2c(=O)o1
Second: Cn1ncc(/C=C/C(=O)O)c1-c1cccnc1
The melting point of the first is lower: 180 °C for the first, 236 to 237 °C for the second.

Compared with `Cc1c(NC(=O)C(CSC(=O)C(C)(C)C)Cc2ccccc2)cccc1C(=O)O` (configuration not stated), `NS(=O)(=O)c1cc(C(=O)O)cc(NCc2ccccc2)c1Nc1ccccc1` is higher in melting point: 117 to 120 °C for the first, 248 to 249 °C for the second.

First: Cc1nn(C)c(=O)n1-c1ccccc1COc1ccn(-c2ccc(Cl)cc2)n1
Second: CN1CCc2nc3cc(Cl)ccc3c(NNc3ccccc3)c2C1
The melting point of the first is lower: 107 to 108 °C for the first, 175 to 178 °C for the second.

Compared with `O=[N+]([O-])c1cc2nc(O)c(O)nc2c2nccnc12`, `NCCSC[C@H]1O[C@@H](n2cnc3c(NCc4ccc([N+](=O)[O-])cc4)ncnc32)[C@H](O)[C@@H]1O` is lower in melting point: over 300 °C for the first, 115 to 117 °C for the second.

First: O=C(O)Cn1cc(Cc2nc3c(F)c(F)cc(F)c3s2)c2cccc(Br)c21
Second: N#Cc1ncn2c1[C@@H]1CCCN1C(=O)c1c(Br)cccc1-2
The melting point of the first is lower: 228 to 230 °C for the first, 253 to 254 °C for the second.

First: CC(=O)NNC(=O)NC1c2ccccc2Oc2ccccc21
Second: CC(=O)Oc1ccc(S(=O)(=O)ON=C2c3ccccc3-c3ccccc32)cc1
The melting point of the first is higher: 226 to 228 °C for the first, 167 to 168 °C for the second.

Compared with `CNC(=N[N+](=O)[O-])N(C)Cc1ccc(Cl)nc1`, `CN(CCOc1ccc([N+](=O)[O-])cc1)CCc1ccc([N+](=O)[O-])cc1` is lower in melting point: 136 to 137 °C for the first, 74 °C for the second.

Compared with `CC1(C)CC(c2ccc3ccccc3n2)c2cc(C#N)ccc2O1` (configuration not stated), `N#Cc1cc(Cl)nc(SCc2ccc3ccccc3c2)n1` is lower in melting point: 174 to 176 °C for the first, 120 to 121 °C for the second.

First: CCOC(=O)/C=C/c1ccc(OCCOCCOC)cc1Oc1ncc(C(F)(F)F)cc1Cl
Second: O=C(NN=CC(Cl)(Cl)Cl)c1cccc(Oc2cccc(C(F)(F)F)c2)n1
The melting point of the first is lower: 76.6 to 76.8 °C for the first, 81 to 82 °C for the second.

First: CN1CC=C(c2c[nH]c3cc(Cl)c(Cl)cc23)CC1
Second: COc1cc2[nH]c(C)c(CCN3CCN(NC(=O)c4ccccc4)CC3)c2cc1OC
The melting point of the first is higher: 255 to 257 °C for the first, 128 to 131 °C for the second.

First: CC(C)C(O)(CCc1ccc(OCc2ccccc2)cc1)CC(=O)O (configuration not stated)
Second: CC(=O)Nc1nc(CCc2ccc(C#N)cc2)cs1
The melting point of the first is lower: 97 to 98 °C for the first, 205 to 206 °C for the second.

Compared with `CCCSc1sc(C(N)=O)c2c1-c1nn(S(C)(=O)=O)cc1CC2`, `CCOC(=O)N1CCCc2cc(C(=O)CCCl)ccc21` is lower in melting point: 191 to 192 °C for the first, 78 to 79 °C for the second.

First: CCCc1nc(C(C)O)c(C(=O)OCC)[nH]1 (configuration not stated)
Second: Cc1ccccc1CCOS(N)(=O)=O
The melting point of the first is higher: 151 to 153 °C for the first, 50 to 52 °C for the second.

First: O=C(Nc1nccs1)C(CC1CCCC1)c1ccc(Br)cc1 (configuration not stated)
Second: O=C(NC/C=C\COc1cc(CN2CCCCC2)ccn1)NC1CCCCC1
The melting point of the first is higher: 201 to 202 °C for the first, 131 to 132 °C for the second.

First: Clc1ccccc1-c1c(I)nc2ncnn2c1NC1CCCC1
Second: Cc1[nH]c(=O)c(C#N)c2c1CC(c1ccccc1)CC2 (configuration not stated)
The melting point of the first is lower: 150 °C for the first, over 290 °C for the second.

First: CC(C)(C)C(=O)c1c[nH]c2ncc(-c3ccc(N4CCN(CCO)CC4)cc3)nc12
Second: COC(=O)/C=C1\CCc2cc(C(C)(C)C)ccc21
The melting point of the first is higher: 211 to 213 °C for the first, 116 to 118 °C for the second.

Compared with `Cn1c(=O)on(-c2cc(F)ccc2F)c1=O`, `CNCc1ccc2c(Br)c(OC)ccc2c1` is lower in melting point: 66 to 68 °C for the first, 41 to 45 °C for the second.

First: CC(=O)C(Cc1cc(C(C)(C)C)c(O)c(C(C)(C)C)c1)(Cc1cc(C(C)(C)C)c(O)c(C(C)(C)C)c1)C(=O)OC1CC(C)(C)NC(C)(C)C1
Second: COc1cc(O)c(CC=C(C)C)c(O)c1C(=O)C=Cc1ccc(O)cc1
The melting point of the first is higher: 177 to 178 °C for the first, 172 °C for the second.

Compared with `O=C(NCCCSc1ccncc1)c1ccsc1`, `Cc1nc(C=CNC(=O)c2ccccc2)n[nH]1` is higher in melting point: 121 to 122 °C for the first, 140 to 145 °C for the second.

First: CC(=O)Nc1cccc(NC(=O)C=C2CC(C(=O)O)Nc3cc(Cl)cc(Cl)c32)c1 (racemic)
Second: COc1cc2ncc(C#N)c(Nc3cccc(C(N)=O)c3)c2cc1OC
The melting point of the first is lower: 190 to 193 °C for the first, 253 to 255 °C for the second.

First: C#CCN(C(C)=O)c1cccc(C(=O)C=CN(C)C)c1
Second: Cc1sc(N2CCCCC2)nc1CCl
The melting point of the first is higher: 98 to 101 °C for the first, 79 to 80 °C for the second.
